This note sets out measurements from ChEMBL document CHEMBL1153581, “Synthesis, antiviral and anticancer activity of some novel thioureas derived from N-(4-nitro-2-phenoxyphenyl)-methanesulfonamide” (Eur J Med Chem, 2009).

≈ marks a conversion by molar mass, not a printed value.

The assay concerns Vaccinia virus. The experiment in a line: Antiviral activity against Vaccinia virus infected in human HEL cells assessed as protection against virus-induced cytopathogenicity. As to conditions: Orthopoxvirus vaccinia. Type of assay: functional. Background: Cytopathic effects are the visible damage that an infection or toxin causes in cultured cells.
For `CCCNC(=S)Nc1ccc(NS(C)(=O)=O)c(Oc2ccccc2)c1`, the MIC50 was > 40 µg/mL.

Turning to `CNC(=S)Nc1ccc(NS(C)(=O)=O)c(Oc2ccccc2)c1`, the MIC50 stood at 100 µg/mL (≈ 285 µM).

Take `CCNC(=S)Nc1ccc(NS(C)(=O)=O)c(Oc2ccccc2)c1`: the MIC50 was 40 µg/mL (≈ 109 µM).

For the molecule `CS(=O)(=O)Nc1ccc(NC(=S)NCCc2ccccc2)cc1Oc1ccccc1`, the MIC50 is > 8 µg/mL.

In the case of `CS(=O)(=O)Nc1ccc(NC(=S)NC2CCCCC2)cc1Oc1ccccc1`, the MIC50 was > 8 µg/mL.

Consider `C=CCNC(=S)Nc1ccc(NS(C)(=O)=O)c(Oc2ccccc2)c1`, for which the MIC50 was > 40 µg/mL.

As to `CS(=O)(=O)Nc1ccc(NC(=S)NCCc2ccc(Cl)cc2)cc1Oc1ccccc1`, the MIC50 is > 100 µg/mL.

For `CS(=O)(=O)Nc1ccc(NC(=S)NCc2ccccc2)cc1Oc1ccccc1`, the MIC50 was > 8 µg/mL.

Take `CS(=O)(=O)Nc1ccc(NC(=S)Nc2ccc([N+](=O)[O-])cc2)cc1Oc1ccccc1`: the MIC50 came to 8 µg/mL (≈ 17.4 µM).

With `Nc1nc2c(ncn2COCCO)c(=O)[nH]1` [ACYCLOVIR], the MIC50 was > 250 µg/mL.

On to `O=c1[nH]c(=O)n([C@H]2C[C@H](O)[C@@H](CO)O2)cc1/C=C/Br` [BRIVUDINE], for which the MIC50 was found to be 2 µg/mL (≈ 6 µM).

As to `Nc1nc2c(ncn2COC(CO)CO)c(=O)[nH]1` [GANCICLOVIR], the MIC50 was 100 µg/mL (≈ 392 µM).

`NC(=O)c1ncn([C@@H]2O[C@H](CO)[C@@H](O)[C@H]2O)n1` [RIBAVIRIN]: the MIC50 was determined as 150 µg/mL (≈ 614 µM).
